Test results: patent publication US11529394B2, “Polypeptide conjugates and methods of uses” (BEIJING QL BIOPHARMACEUTICAL CO., LTD., priority 2020, dated 2022)

What was measured:
[1] = endogenous GLP-1; cited from earlier work
[2] = Body weight loss in C57 lean mice after single subcutaneous dose; assay type: in vivo, C57BL/6 mice
Protocol: Method: 10 week old male C57BL/6 mice were injected subcutaneously with protein once on Day 1. Body weight was measured daily and five animals were used for each treatment group. […] The area under the curve for body weight loss (%) from 0 until 8 days (AUC ΔBW 0-8d) was calculated.

[3] = system: db/db mice; test: Non-fasting glucose in db/db mice after single subcutaneous dose; assay type: in vivo; details: non-fasting delta blood glucose
Protocol: Method: 10 weeks old male db/db mice were injected subcutaneously with protein once. […] Delta blood glucose is glucose subtracted by baseline level. […] The area under the curve for delta blood glucose from 0 until 192 hours (AUCΔBG 0-192 h) was calculated.

[4] = target: human serum albumin (Homo sapiens, UniProt P02768); test: Human serum albumin binding by surface plasmon resonance (Biacore 8K); details: human serum albumin on CM5 chip, SPR
Protocol: Method: Binding of molecules to serum albumin was characterized by surface plastron resonance in a Biacore 8K instrument, Serum albumin from different species was covalently bound to CM5 sensor chips surface until 4000 RU was reached. The chip was blocked by 1M ethanolamine with flowrate of 10 μL/min for 420 s, Each molecule sample was diluted and injected at a flow rate of 30 μL/min to allow for binding to chip-bound albumin for 120 s and for dissociation for 300 s. Binding buffer without molecule was sent over the chip at the flow rate of 20 seconds to allow spontaneous dissociation of bound molecule for 30 seconds.

[5] = target: GLP-1 receptor (Homo sapiens, UniProt P43220); details: cited from earlier work
Chain of GLP-1 receptor (P43220 24-463, species assumed): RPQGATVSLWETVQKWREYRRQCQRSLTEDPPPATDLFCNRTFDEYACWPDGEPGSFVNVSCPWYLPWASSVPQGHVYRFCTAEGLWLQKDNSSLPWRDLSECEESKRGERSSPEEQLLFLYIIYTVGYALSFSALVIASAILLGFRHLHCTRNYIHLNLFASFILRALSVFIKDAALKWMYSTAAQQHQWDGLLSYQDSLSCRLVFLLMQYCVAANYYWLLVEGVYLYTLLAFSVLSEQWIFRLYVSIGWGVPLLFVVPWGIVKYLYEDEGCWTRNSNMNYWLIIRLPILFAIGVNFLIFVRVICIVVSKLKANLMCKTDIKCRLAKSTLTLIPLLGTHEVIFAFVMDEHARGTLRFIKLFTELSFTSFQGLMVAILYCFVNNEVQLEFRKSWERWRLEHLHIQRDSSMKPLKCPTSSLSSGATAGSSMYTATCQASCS

Chain of human serum albumin (P02768 25-609): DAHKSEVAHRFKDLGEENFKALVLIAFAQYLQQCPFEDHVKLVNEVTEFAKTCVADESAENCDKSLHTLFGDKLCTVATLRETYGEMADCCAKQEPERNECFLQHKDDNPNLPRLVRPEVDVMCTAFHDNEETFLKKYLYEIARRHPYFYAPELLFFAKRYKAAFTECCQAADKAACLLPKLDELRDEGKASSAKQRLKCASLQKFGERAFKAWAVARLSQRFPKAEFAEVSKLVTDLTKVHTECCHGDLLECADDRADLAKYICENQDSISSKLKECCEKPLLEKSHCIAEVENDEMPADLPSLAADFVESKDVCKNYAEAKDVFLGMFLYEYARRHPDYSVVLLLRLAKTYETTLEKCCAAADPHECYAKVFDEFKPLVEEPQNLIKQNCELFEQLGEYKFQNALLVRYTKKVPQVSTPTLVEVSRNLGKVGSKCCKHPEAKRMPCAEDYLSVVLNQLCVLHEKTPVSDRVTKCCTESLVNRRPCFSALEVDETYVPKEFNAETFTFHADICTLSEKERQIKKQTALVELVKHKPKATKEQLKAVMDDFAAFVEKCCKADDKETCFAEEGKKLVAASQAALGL

Substance | half-life [1] | AUC ΔBW 0-8 d ([2]; Study 1 (FIG. 1A and 1B), 3 nmol/kg s.c. once) [day* %] | AUC ΔBW 0-8 d ([2]; Study 1 (FIG. 1A and 1B), 10 nmol/kg s.c. once) [day* %] | AUC ΔBW 0-8 d ([2]; Study 1 (FIG. 1A and 1B), 30 nmol/kg s.c. once) [day* %] | AUC ΔBW 0-8 d ([2]; Study 2 (FIG. 1C), 30 nmol/kg s.c. once) [day* %] | AUC ΔBW 0-8 d ([2]; Study 3 (FIG. 1D), 30 nmol/kg s.c. once) [day* %] | AUC ΔBG 0-192 h ([3]; 3 nmol/kg s.c. once) [mmol·h/L] | AUC ΔBG 0-192 h ([3]; 10 nmol/kg s.c. once) [mmol·h/L] | AUC ΔBG 0-192 h ([3]; 30 nmol/kg s.c. once) [mmol·h/L] | Rmax [4] [RU] | loss in GLP-1 receptor binding in presence of human serum albumin (HSA) relative to unconjugated counterpart [5] [fold]
GLP-1: endogenous Glucagon-Like Peptide-1, 30 or 31 amino acid peptide fragment (7-36 or 7-37) | approximately 2 minutes |  |  |  |  |  |  |  |  |  | 
semaglutide [reference compound] |  | −0.6 | −11.1 | −12.7 | −9.3 | −13.2 | -317.0 | -583.4 | -527.1 | 55.2 | 939
